Peptide text beside a SMILES is read from it. * marks the point of attachment. Cbz = O=C(OCc1ccccc1)*

The record followed here is patent publication US20250136991A1, “METHOD OF MAKING BONE AND CARTILAGE” (priority 2022, published 2025).

The test system of series [1] is Mast4. The series can be described thus: Mast4-PDZ expression in C3H10T1/2 cells transfected with Mast4-PDZ and GSK-3β, CHIR-99021 treatment (western blot). The format is cell-based, murine. The conditions noted are these: CHIR-99021 10 μM for 9 h (FIG. 4d). (In general: In western blotting, separated proteins are transferred to a membrane and probed.)
Procedure: Cell lysates were immunoprecipitated with Flag antibody and immunoblotted with the indicated antibodies. k MC3T3-E1 cells were transfected with Mast4-PDZ WT and Δ632-636, followed by treatment of Wnt3a conditioned medium (2.5 h). l 6xOSE-Luc, Mast4-PDZ WT and Δ632-636 were transfected to C3H10T1/2 cells, followed by treatment of Wnt3a conditioned medium (18 h). […] Unpaired two-tailed Student's t test (P<0.05) with Benjamini-Hochberg correction for multiple tests was conducted for all statistical analyses. b-k The representative results were obtained from at least three independent experiments. TCL: total cell lysates.
For the immunoprecipitation assay, cell extracts were incubated with the indicated primary antibodies overnight at 4° C. Antibody-bound proteins were precipitated with Dynabeads Protein G (Invitrogen). Cells were lysed in a RIPA buffer containing protease inhibitor cocktail (Complete; Roche). Samples were separated by SDS-PAGE, followed by electrotransfer to polyvinylidene difluoride membranes (PVDF; Millipore). The membrane was blocked for 1 h at room temperature and incubated overnight at 4° C. with the primary antibodies. Horseradish peroxidase-conjugated antibodies (Millipore) were used as secondary antibodies. The peroxidase reaction products were visualized with WESTZOL (Intron). All signals were detected by Amersham Imager 600 (GE Healthcare Life Sciences).
Series [2] has as its system Mast4. The series can be described thus: Mast4 degradation (cycloheximide chase) in Mast4-PDZ-overexpressing C3H10T1/2 cells with CHIR-99021. The format is cell-based, murine. Set-up: dose or concentration left out as unconfirmed. The settings on record: (FIG. 22d). An excerpt: FIGS. 22a-22e show Mast4 induction during osteogenesis and GSK-3b regulation of Mast4 expression. (a) The schematic representation of osteogenic differentiation of C3H10T1/2 cells. (b) The indicated C3H10T1/2 cells were differentiated into osteoblasts for 10 days, followed by Alizarin Red S staining. (c) C3H10T1/2 cells were differentiated into osteoblasts for 10 days, followed by western blot analysis for the expression of Mast4 and key Wnt signaling molecules. (d) Mast4-PDZ-overexpressing C3H10T1/2 cells were treated with cycloheximide (CHX; […]) for the indicated time in the absence or presence of CHIR-99021 ([…]). (e) The wild-type and GSK-3b-depleted HA-Mast4-PDZ-overexpressing C3H10T1/2 cells were treated with MG-132 ([…] for 4 h) and CHIR-99021 ([…]). (b-d) The representative result were obtained from at least three separate experiments.
For the immunoprecipitation assay, cell extracts were incubated with the indicated primary antibodies overnight at 4° C. Antibody-bound proteins were precipitated with Dynabeads Protein G (Invitrogen). Cells were lysed in a RIPA buffer containing protease inhibitor cocktail (Complete; Roche). Samples were separated by SDS-PAGE, followed by electrotransfer to polyvinylidene difluoride membranes (PVDF; Millipore). […] All signals were detected by Amersham Imager 600 (GE Healthcare Life Sciences).

For series [3], the system named is Sox9. The series can be described thus: Mast4-induced Sox9 degradation in C3H10T1/2 cells with MG-132 treatment (western blot). Type of series: cell-based, murine. The settings on record: C3H10T1/2 cells transfected with Myc-Sox9 and Mast4-PDZ, MG-132 10 mM for 6 h (FIG. 16e). The protocol: (a) The indicated C3H10T1/2 cells were differentiated into chondrocytes for 6 days, followed by Sox9 ChIP on the Col2a1 gene. (b) 4xCol2a1-luc was transiently overexpressed in LPCX control and Mast4 PDZ-overexpressing C3H10T1/2 cells, followed by TGF-b1 treatment (3 ng/ml for 24 h). (a and b) Data are representative mean±SD of three independent experiments, each conducted in triplicate (n=3). Unpaired two-tailed Student's t test (P<0.05) with Benjamini-Hochberg correction for multiple tests was conducted for all statistical analyses. P values versus WT. (c) Full-length (HA-Mast4-FULL) and truncated Mast4 (HA-Mast4-PDZ) together with siMAST4 (50 pmol) that targets exogenous Mast4 (human) were co-transfected with Myc-Sox9 into C3H10T1/2 cells. Due to inefficient detection of full length Mast4 with HA antibody, Mast4 antibody which recognizes the C-terminus was used. (d) The indicated C3H10T1/2 cells were differentiated to chondrocytes for 6 days, followed by MG-132 ([…] for 6 h) treatment. Endogenous Sox9 was immunoprecipitated, and the complexes were analyzed by western blot using phospho-serine and Sox9 antibodies. […]
(§1) For the immunoprecipitation assay, cell extracts were incubated with the indicated primary antibodies overnight at 4° C. […] All signals were detected by Amersham Imager 600 (GE Healthcare Life Sciences).

The target in series [4] is Mast4-PDZ P628A/Y634A (UniProt O15021).
Mast4-PDZ P628A/Y634A, sequence (O15021 whole entry P628A/Y634A, looked up): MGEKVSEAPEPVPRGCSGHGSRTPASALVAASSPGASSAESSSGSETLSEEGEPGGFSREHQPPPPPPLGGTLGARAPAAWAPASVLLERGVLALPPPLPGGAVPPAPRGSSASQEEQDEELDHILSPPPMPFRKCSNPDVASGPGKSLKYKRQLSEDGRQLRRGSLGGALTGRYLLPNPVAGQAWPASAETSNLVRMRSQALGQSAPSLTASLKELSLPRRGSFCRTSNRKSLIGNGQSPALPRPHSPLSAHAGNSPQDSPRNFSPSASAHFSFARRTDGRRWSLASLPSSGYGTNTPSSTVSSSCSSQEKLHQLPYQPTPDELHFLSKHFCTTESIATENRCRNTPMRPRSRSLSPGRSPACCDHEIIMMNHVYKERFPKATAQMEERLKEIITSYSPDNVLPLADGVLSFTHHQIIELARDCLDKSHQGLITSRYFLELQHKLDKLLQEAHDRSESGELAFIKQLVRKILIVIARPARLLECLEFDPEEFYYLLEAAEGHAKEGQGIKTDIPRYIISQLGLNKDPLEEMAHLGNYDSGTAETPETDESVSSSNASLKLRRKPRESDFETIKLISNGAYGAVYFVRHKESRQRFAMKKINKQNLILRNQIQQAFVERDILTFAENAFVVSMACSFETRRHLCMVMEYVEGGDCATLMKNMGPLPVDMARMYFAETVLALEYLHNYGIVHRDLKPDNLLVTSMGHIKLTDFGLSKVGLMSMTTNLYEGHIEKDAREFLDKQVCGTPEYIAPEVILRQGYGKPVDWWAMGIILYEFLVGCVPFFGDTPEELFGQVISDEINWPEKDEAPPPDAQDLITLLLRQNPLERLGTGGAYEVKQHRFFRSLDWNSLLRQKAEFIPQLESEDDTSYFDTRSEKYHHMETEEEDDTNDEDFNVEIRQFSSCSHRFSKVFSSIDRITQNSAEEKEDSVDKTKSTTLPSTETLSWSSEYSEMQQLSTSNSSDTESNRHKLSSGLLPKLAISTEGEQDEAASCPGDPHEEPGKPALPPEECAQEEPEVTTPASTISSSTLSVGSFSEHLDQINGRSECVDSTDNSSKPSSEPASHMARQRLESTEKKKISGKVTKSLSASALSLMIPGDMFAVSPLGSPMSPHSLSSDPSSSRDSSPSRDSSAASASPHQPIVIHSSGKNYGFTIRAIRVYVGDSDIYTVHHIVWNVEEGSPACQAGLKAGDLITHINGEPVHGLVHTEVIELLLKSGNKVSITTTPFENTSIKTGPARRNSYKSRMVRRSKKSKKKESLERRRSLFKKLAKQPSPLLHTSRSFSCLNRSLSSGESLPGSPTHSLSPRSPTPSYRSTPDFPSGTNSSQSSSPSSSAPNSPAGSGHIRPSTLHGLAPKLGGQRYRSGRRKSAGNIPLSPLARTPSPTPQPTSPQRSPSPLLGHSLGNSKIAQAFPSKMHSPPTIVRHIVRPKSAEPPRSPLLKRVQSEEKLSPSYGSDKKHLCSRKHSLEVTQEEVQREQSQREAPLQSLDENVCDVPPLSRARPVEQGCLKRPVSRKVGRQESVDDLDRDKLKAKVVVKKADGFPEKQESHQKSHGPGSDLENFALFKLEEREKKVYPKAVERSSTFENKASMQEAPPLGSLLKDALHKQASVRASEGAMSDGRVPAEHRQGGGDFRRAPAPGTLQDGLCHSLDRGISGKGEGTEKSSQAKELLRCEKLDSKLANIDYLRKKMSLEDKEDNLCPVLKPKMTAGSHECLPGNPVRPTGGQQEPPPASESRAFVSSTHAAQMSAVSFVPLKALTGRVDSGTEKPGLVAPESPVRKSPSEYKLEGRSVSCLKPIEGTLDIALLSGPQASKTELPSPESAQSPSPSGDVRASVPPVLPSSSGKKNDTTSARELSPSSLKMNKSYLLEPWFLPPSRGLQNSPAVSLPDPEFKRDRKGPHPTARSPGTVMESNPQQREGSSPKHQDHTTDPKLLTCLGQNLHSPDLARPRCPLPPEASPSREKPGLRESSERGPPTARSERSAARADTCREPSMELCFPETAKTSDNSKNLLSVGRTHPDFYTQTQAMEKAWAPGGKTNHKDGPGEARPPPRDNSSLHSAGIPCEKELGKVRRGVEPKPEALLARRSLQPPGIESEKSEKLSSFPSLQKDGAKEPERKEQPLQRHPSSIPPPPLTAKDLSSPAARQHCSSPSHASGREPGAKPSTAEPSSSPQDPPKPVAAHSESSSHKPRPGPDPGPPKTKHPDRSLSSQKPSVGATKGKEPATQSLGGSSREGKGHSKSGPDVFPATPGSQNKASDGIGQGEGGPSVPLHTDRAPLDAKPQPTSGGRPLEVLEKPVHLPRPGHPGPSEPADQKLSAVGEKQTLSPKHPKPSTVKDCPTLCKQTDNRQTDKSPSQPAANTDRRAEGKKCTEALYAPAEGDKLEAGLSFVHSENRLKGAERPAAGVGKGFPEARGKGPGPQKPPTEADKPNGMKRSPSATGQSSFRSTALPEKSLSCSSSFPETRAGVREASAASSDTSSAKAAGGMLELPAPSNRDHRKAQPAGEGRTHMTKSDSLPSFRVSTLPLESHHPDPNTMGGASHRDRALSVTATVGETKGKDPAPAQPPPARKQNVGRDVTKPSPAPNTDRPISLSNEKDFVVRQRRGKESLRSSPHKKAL
Series [5] deals with Mast4. In words: Mast4 expression by western blot and RT-PCR in C3H10T1/2 cells treated with TGF-β1. The format is cell-based, murine. The settings on record: TGF-β1 for 48 h (FIG. 3c). As for the experimental part:
(§2) FIGS. 3a-3g show TGF-β1-induced suppression of Mast4 enhances chondrogenesis by increasing Sox9-Smad3 association. a Sox9 and Smad3 were co-transfected to wild-type and Mast4-depleted C3H10T1/2 cells, followed by TGF-β1 treatment (5 ng/ml for 30 minutes). Sox9 was immunoprecipitated using HA antibody. Band intensities representing GFP-Smad3 and HA-Sox9 expression level in the immunoprecipitates were converted by densitometry using ImageJ software into the ratio of Smad3 to Sox9. Data are reported as mean±SD of three independent experiments (n=3). […]
Total RNA was prepared using EasyBlue (Boca Scientific). […] Quantitative real-time PCR was performed using Power SYBR Green PCR Master Mix (Applied Biosystems) on the QuantStudio 5 Real-Time PCR Instrument (Applied Biosystems). The mRNA levels of various genes were measured in triplicate and normalized with Gapdh. […]
as §1

Series [6] has as its system Mast4 promoter. The series can be described thus: Mast4 promoter luciferase assay in undifferentiated C3H10T1/2 cells. The format is cell-based, murine. The conditions noted are these: TGF-β1 5 ng/ml for 24 h (FIG. 3d). The protocol:
as §2, with “(n=3). Unpaired two-tailed Student's t test (P<0.05) was conducted for statistical analysis. b Smad3 ChIP on Col2a1 gene assay was performed in differentiating C3H10T1/2 cells for 6 days. c Mast4 expression was examined by western blot and RT-PCR of C3H10T1/2 cells treated with TGF-β1 for 48 h. d Luciferase assay was conducted in undifferentiated C3H10T1/2 cells.” for “(n=3).”
C3H10T1/2 cells were transiently transfected with 4xCol2a1-luc, Smad3/4-responsive promoter (CAGA)12-luc, SBE-luc, 6xOSE-luc, MAST4-promoter luciferase report plasmids, HA-MAST4 PDZ, Myc-Sox9 WT/S494A/S494D plasmids using polyethylenimine (Polysciences). […] The luciferase activities were analyzed using the Luciferase Assay System kit (Promega) according to the manufacturer's protocol. […]

For series [7], the system named is Mast4 promoter. The series can be described thus: Smad3 ChIP assay on Mast4 gene in differentiating C3H10T1/2 cells. The format is cell-based, murine. The settings on record: 6 days chondrogenic differentiation, TGF-β1 5 ng/ml for 48 h (FIG. 3e, FIG. 20). The protocol: (§3) FIGS. 3a-3g show TGF-β1-induced suppression of Mast4 enhances chondrogenesis by increasing Sox9-Smad3 association. a Sox9 and Smad3 were co-transfected to wild-type and Mast4-depleted C3H10T1/2 cells, followed by TGF-β1 treatment (5 ng/ml for 30 minutes). Sox9 was immunoprecipitated using HA antibody. Band intensities representing GFP-Smad3 and HA-Sox9 expression level in the immunoprecipitates were converted by densitometry using ImageJ software into the ratio of Smad3 to Sox9. Data are reported as mean±SD of three independent experiments (n=3). Unpaired two-tailed Student's t test (P<0.05) was conducted for statistical analysis. b Smad3 ChIP on Col2a1 gene assay was performed in differentiating C3H10T1/2 cells for 6 days. c Mast4 expression was examined by western blot and RT-PCR of C3H10T1/2 cells treated with TGF-β1 for 48 h. d Luciferase assay was conducted in undifferentiated C3H10T1/2 cells. Vactosertib (0.5 μM) was pre-treated for 2 h prior to TGF-β1 (5 ng/ml) treatment for 24 h. e Smad3 ChIP assay on Mast4 gene was conducted in C3H10T1/2 cells undergoing chondrogenic differentiation for 6 days. […]

For series [8], the system named is Mast4. The series can be described thus: Mast4 expression in human primary chondrocytes treated with TGF-β1. Type of series: cell-based. The conditions noted are these: TGF-β1 5 ng/ml for 24 h and 48 h (FIG. 3g). The protocol: as §3

As to `Cc1c[nH]c(-c2cnc(NCCNc3ccc(C#N)cn3)nc2-c2ccc(Cl)cc2Cl)n1` [GSK-3β inhibitor, CHIR-99021], in series [1], the Mast4 expression entry is on record as “dramatically increased”. In addition, the Mast4 degradation result in series [2] is on record as “significantly delayed”.

On to `CC(C)C[C@@H](C=O)NC(=O)[C@H](CC(C)C)NC(=O)[C@H](CC(C)C)NC(=O)OCc1ccccc1` [MG-132] (Cbz-Leu-Leu-Leu-aldehyde), for which, in series [3], the “Mast4-induced Sox9 degradation” value is reported as “restored”.

In the case of Smurf1, the “Smurf1-mediated Mast4 degradation” value in series [4] is reported as “mutation of PY-like motif in the kinase domain of Mast4 (P628A/Y634A) prevented Smurf1-mediated Mast4 degradation”.

Consider “TGF-β1: TGF-β1 protein (R&D Systems) used to treat cells”, for which the “mRNA and protein expression of Mast4” value in series [5] is “markedly suppressed”. Also, the Mast4 promoter activity result in series [6] is “suppressed”. Also, the “Smad3 occupancy at the Mast4 promoter” value in series [7] is “significantly increased”. For the same compound, the “Mast4 mRNA expression level” value in series [8] is “gradual reduction”.
